Test results: patent US12091425B2 (AMGEN INC., priority 2016, dated 2024)

Assays:
[1] = molecular target: T1, Mcl-1/Bim interaction, recombinant human Mcl-1 (171-327) (Homo sapiens, UniProt Q07820); assay: Cell free Mcl-1: Bim Affinity Assay (Mcl-1 HTRF); type: binding; details: cell free Mcl-1:Bim TR-FRET, recombinant human Mcl-1 (171-327)
T1 construct: made in house
In short: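 Compounds were mixed with the protein and a biotinylated Bim peptide spanning human residues 51-76. Plates were left overnight, then TR-FRET signal was measured. A four-parameter sigmoidal model applied to duplicate competition data gave IC50.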

[2] = system: OPM-2 human multiple myeloma cell line; assay: Cell Viability Assay (OPM-2 10 FBS); type: cell-based; details: OPM-2 cells, 16 h, CellTiter-Glo
In short: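 IC50 from 4-parameter logistic fit of CellTiter-Glo luminescence. 3000 cells/well, 10% FBS medium, serial compound dilutions, 16 h, 37 °C/5% CO2; read 25 min post-reagent.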

T1 sequence (Q07820 171-327): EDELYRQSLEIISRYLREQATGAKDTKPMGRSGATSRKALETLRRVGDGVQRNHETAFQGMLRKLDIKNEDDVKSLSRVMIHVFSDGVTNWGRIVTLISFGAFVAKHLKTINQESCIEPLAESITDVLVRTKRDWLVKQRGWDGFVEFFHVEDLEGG

Structure (SMILES)	IC50 [1] [nM]	IC50 ([2]; Homo sapiens, OPM-2, 16 h) [nM]	IC50 [2] [nM]
C[C@@H]1[C@@H](C)C/C=C/[C@H](OCCN2C[C@@H]3C[C@H]2CO3)[C@@H]2CC[C@H]2CN2C[C@@]3(CCCc4cc(Cl)ccc43)COc3ccc(cc32)C(=O)NS1(=O)=O [Example 520, (1S,3′R,6′R,7′S,8′E,11′S,12′R)-6-chloro-11,12′-dimethyl-7′-(2-((1S,4S)-2-oxa-5-azabicyclo[2.2.1]hept-5-yl)ethoxy)-3,4-dihydro-2H,15′H-spiro[naphthalene-1,22′-[20]oxa[13]thia[1,14]diazatetracyclo[14.7.2.0^3,6.0^19,24]pentacosa [8,16,18,24]tetraen]-15′-one 13′,13′-dioxide 2,2,2-trifluoroacetic Acid]	0.279	142	
C[C@@H]1[C@@H](C)C/C=C/[C@H](OCCN2C[C@H]3C[C@@H]2CO3)[C@@H]2CC[C@H]2CN2C[C@@]3(CCCc4cc(Cl)ccc43)COc3ccc(cc32)C(=O)NS1(=O)=O [Example 521, (1S,3′R,6′R,7′S,8′E,11′S,12′R)-6-chloro-11′,12′-dimethyl-7′-(2-((1R,4R)-2-oxa-5-azabicyclo[2.2.1]hept-5-yl)ethoxy)-3,4-dihydro-2H,15′H-spiro[naphthalene-1,22′-[20]oxa[13]thia[1,14]diazatetracyclo[14.7.2.0^3,6.0^19,24]pentacosa [8,16,18,24]tetraen]-15′-one 13′,13′-dioxide 2,2,2-trifluoroacetic Acid]	0.291	166	
C[C@@H]1[C@@H](C)C/C=C/[C@H](OCCN2CCC2)[C@@H]2CC[C@H]2CN2C[C@@]3(CCCc4cc(Cl)ccc43)COc3ccc(cc32)C(=O)NS1(=O)=O [Example 526, (1S,3′R,6′R,7′S,8′E,11′S,12′R)-7′-(2-(1-azetidinyl)ethoxy)-6-chloro-11′,12′-dimethyl-3,4-dihydro-2H,15′H-spiro[naphthalene-1,22′-[20]oxa[13]thia[1,14]diazatetracyclo[14.7.2.0^3,6.0^19,24]pentacosa [8,16,18,24]tetraen]-15′-one 13′,13′-dioxide 2,2,2-trifluoroacetic Acid]	1.06	862	
C[C@@H]1[C@@H](C)C/C=C/[C@H](OCCN2CC(F)C2)[C@@H]2CC[C@H]2CN2C[C@@]3(CCCc4cc(Cl)ccc43)COc3ccc(cc32)C(=O)NS1(=O)=O [Example 532, (1S,3′R,6′R,7′S,8′E,11′S,12′R)-6-chloro-7′-(2-(3-fluoro-1-azetidinyl)ethoxy)-11′,12′-dimethyl-3,4-dihydro-2H,15′H-spiro[naphthalene-1,22′-[20]oxa[13]thia[1,14]diazatetracyclo[14.7.2.0^3,6.0^19,24]pentacosa [8,16,18,24]tetraen]-15′-one 13′,13′-dioxide]	0.427	156	
CC[N+](CC)(CC)CCO[C@H]1/C=C/C[C@H](C)[C@@H](C)S(=O)(=O)NC(=O)c2ccc3c(c2)N(C[C@@H]2CC[C@H]21)C[C@@]1(CCCc2cc(Cl)ccc21)CO3 [Example 533, 2-(((1S,3′R,6′R,7′S,8′E,11′S,12′R)-6-chloro-11′,12′-dimethyl-13′,13′-dioxido-15′-oxo-3,4-dihydro-2H-spiro[naphthalene-1,22′-[20]oxa[13]thia[1,14]diazatetracyclo[14.7.2.0^3,6.0^19,24]pentacosa [8,16,18,24]tetraen]-7′-yl)oxy)-N,N,N-triethylethanaminium 2,2,2-trifluoroacetate]	0.583	14200	
C[C@@H]1[C@@H](C)C/C=C/[C@H](OCCN2CCOC[C@@H]2C)[C@@H]2CC[C@H]2CN2C[C@@]3(CCCc4cc(Cl)ccc43)COc3ccc(cc32)C(=O)NS1(=O)=O [Example 534, (1S,3′R,6′R,7′S,8′E,11′S,12′R)-6-chloro-11′,12′-dimethyl-7′-(2-((3S)-3-methyl-4-morpholinyl)ethoxy)-3,4-dihydro-2H,15′H-spiro[naphthalene-1,22′-[20]oxa[13]thia[1,14]diazatetracyclo[14.7.2.0^3,6.0^19,24]pentacosa [8,16,18,24]tetraen]-15′-one 13′,13′-dioxide]	0.788	99.3	
COC(=O)CCC1(C)CCC=CC(O)C2CCC2CN2CC3(CCCc4cc(Cl)ccc43)COc3ccc(cc32)C(=O)NS1(=O)=O (stereo not shown) [Example 560]	4.83	12200	
CC(C)OC(=O)C[C@@H]1[C@@H](C)C/C=C\[C@H](O)[C@@H]2CC[C@H]2CN2C[C@@]3(CCCc4cc(Cl)ccc43)COc3ccc(cc32)C(=O)NS1(=O)=O [Example 568]	1.1		1310
CC(C)OC(=O)C[C@@H]1[C@@H](C)/C=C\C[C@H](O)[C@@H]2CC[C@H]2CN2C[C@@]3(CCCc4cc(Cl)ccc43)COc3ccc(cc32)C(=O)NS1(=O)=O [Example 569]	1.02	759	

Now from value to compound, other results behind:

IC50 [1] [nM]	IC50 ([2]; Homo sapiens, OPM-2, 16 h) [nM]	Structure (SMILES)	IC50 [2] [nM]
4.87	2520	C[C@@H]1[C@@H](C)C/C=C/[C@H](OCCN2CCCC(F)(F)C2)[C@@H]2CC[C@H]2CN2C[C@@]3(CCCc4cc(Cl)ccc43)COc3ccc(cc32)C(=O)NS1(=O)=O [Example 515, (1S,3′R,6′R,7′S,8′E,11′S,12′R)-6-chloro-7′-(2-(3,3-difluoro-1-piperidinyl)ethoxy)-11′,12′-dimethyl-3,4-dihydro-2H,15′H-spiro[naphthalene-1,22′-[20]oxa[13]thia[1,14]diazatetracyclo[14.7.2.0^3,6.0^19,24]pentacosa [8,16,18,24]tetraen]-15′-one 13′,13′-dioxide]	
0.27	72.5	C[C@@H]1[C@@H](C)C/C=C/[C@H](OCCO)[C@@H]2CC[C@H]2CN2C[C@@]3(CCCc4cc(Cl)ccc43)COc3ccc(cc32)C(=O)NS1(=O)=O [Example 516, (1S,3′R,6′R,7′S,8′E,11′S,12′R)-6-chloro-7′-(2-hydroxyethoxy)-11′,12′-dimethyl-3,4-dihydro-2H,15′H-spiro[naphthalene-1,22′-[20]oxa[13]thia[1,14]diazatetracyclo[14.7.2.0^3,6.0^19,24]pentacosa[8,16,18,24]tetraen]-15′-one 13′,13′-dioxide]	
0.49	257	C[C@@H]1[C@@H](C)C/C=C/[C@H](OCCN2CC3(COC3)C2)[C@@H]2CC[C@H]2CN2C[C@@]3(CCCc4cc(Cl)ccc43)COc3ccc(cc32)C(=O)NS1(=O)=O [Example 518, (1S,3′R,6′R,7′S,8′E,11′S,12′R)-6-chloro-11′,12′-dimethyl-7′-(2-(2-oxa-6-azaspiro[3.3]hept-6-yl)ethoxy)-3,4-dihydro-2H,15′H-spiro[naphthalene-1,22′-[20]oxa[13]thia[1,14]diazatetracyclo[14.7.2.0^3,6.0^19,24]pentacosa [8,16,18,24]tetraen]-15′-one 13′,13′-dioxide]	
0.284	152	C[C@@H]1[C@@H](C)C/C=C/[C@H](OCCNC2COC2)[C@@H]2CC[C@H]2CN2C[C@@]3(CCCc4cc(Cl)ccc43)COc3ccc(cc32)C(=O)NS1(=O)=O [Example 522, (1S,3′R,6′R,7′S,8′E,11′5,12′R)-6-chloro-11′,12′-dimethyl-7′-(2-(3-oxetanylamino)ethoxy)-3,4-dihydro-2H,15′H-spiro[naphthalene-1,22′-[20]oxa[13]thia[1,14]diazatetracyclo[14.7.2.0^3,6.0^19,24]pentacosa [8,16,18,24]tetraen]-15′-one 13′,13′-dioxide 2,2,2-trifluoroacetic Acid]	
1.82	232	C[C@@H]1COCCN1CCO[C@H]1/C=C/C[C@H](C)[C@@H](C)S(=O)(=O)NC(=O)c2ccc3c(c2)N(C[C@@H]2CC[C@H]21)C[C@@]1(CCCc2cc(Cl)ccc21)CO3 [Example 523, (1S,3′R,6′R,7′S,8′E,11′S,12′R)-6-chloro-11′,12′-dimethyl-7′-(2-((3R)-3-methyl-4-morpholinyl)ethoxy)-3,4-dihydro-2H,15′H-spiro[naphthalene-1,22′-[20]oxa[13]thia[1,14]diazatetracyclo[14.7.2.0^3,6.0^19,24]pentacosa [8,16,18,24]tetraen]-15′-one 13′,13′-dioxide]	
0.365	113	C[C@@H]1[C@@H](C)C/C=C/[C@H](OCCN2CCS(=O)(=O)CC2)[C@@H]2CC[C@H]2CN2C[C@@]3(CCCc4cc(Cl)ccc43)COc3ccc(cc32)C(=O)NS1(=O)=O [Example 524, (1S,3′R,6′R,7′S,8′E,11′S,12′R)-6-chloro-7′-(2-(1,1-dioxido-4-thiomorpholinyl)ethoxy)-11′,12′-dimethyl-3,4-dihydro-2H,15′H-spiro[naphthalene-1,22′-[20]oxa[13]thia[1,14]diazatetracyclo[14.7.2.0^3,6.0^19,24]pentacosa [8,16,18,24]tetraen]-15′-one 13′,13′-dioxide]	
0.416	186	COC1CN(CCO[C@H]2/C=C/C[C@H](C)[C@@H](C)S(=O)(=O)NC(=O)c3ccc4c(c3)N(C[C@@H]3CC[C@H]32)C[C@@]2(CCCc3cc(Cl)ccc32)CO4)C1 [Example 525, (1S,3′R,6′R,7′S,8′E,11′S,12′R)-6-chloro-7′-(2-(3-methoxy-1-azetidinyl)ethoxy)-11′,12′-dimethyl-3,4-dihydro-2H,15′H-spiro[naphthalene-1,22′-[20]oxa[13]thia[1,14]diazatetracyclo[14.7.2.0^3,6.0^19,24]pentacosa [8,16,18,24]tetraen]-15′-one 13′,13′-dioxide 2,2,2-trifluoroacetic Acid]	
1.99	21300	CO[C@@H]1/C=C/[C@H](O)[C@@H]2CC[C@H]2CN2C[C@@]3(CCCc4cc(Cl)ccc43)COc3ccc(cc32)C(=O)NS(=O)(=O)CC1 [Example 536, (1S,3′R,6′R,7′S,8′E,10′S)-6-chloro-7′-hydroxy-10′-methoxy-3,4-dihydro-2H,15′H-spiro[naphthalene-1,22′-[20]oxa[13]thia[1,14]diazatetracyclo[14.7.2.0^3,6.0^19,24]pentacosa [8,16,18,24]tetraen]-15′-one 13′,13′-dioxide]	
